Consider four compounds from PubChem BioAssay AID504471 (NMMLSC, 2011).

Each structure is given as a SMILES string.

In this experiment the target is Retrograde regulation protein 3 (Saccharomyces cerevisiae (strain ATCC 204508 / S288c)) (UniProt P38165). The experiment is described as follows: nuclear shift of GFP-tagged Rtg3 – imaging, fluorescence microscopy, S288c, yeast TOR pathway modulator project, SAR follow-up (AID 504471). The following applies: S. cerevisiae Rtg3-GFP, nuclear translocation by microscopy; at 30 µM; hits give high values.

As for `CNc1nc(N)c([N+](=O)[O-])c(Nc2cccc(Cl)c2)n1`, the nuclear translocation (1=yes, 0=no) was 1.

On to `CNc1nc(N)c([N+](=O)[O-])c(Nc2ccccc2)n1`, for which the nuclear translocation (1=yes, 0=no) is 1.

As to `CNc1nc(N)c([N+](=O)[O-])c(Nc2cccc(F)c2)n1`, the nuclear translocation (1=yes, 0=no) is 1.

For `CO[C@H]1C[C@@H]2CC[C@@H](C)[C@@](O)(O2)C(=O)C(=O)N2CCCC[C@H]2C(=O)O[C@H]([C@H](C)C[C@@H]2CC[C@@H](O)[C@H](OC)C2)CC(=O)[C@H](C)/C=C(\C)[C@@H](O)[C@@H](OC)C(=O)[C@H](C)C[C@H](C)/C=C/C=C/C=C/1C`, the nuclear translocation (1=yes, 0=no) is 1.
